Experimental data reported in the supplement of paper PMC8617591.

Assays:
[1] = system: Mycobacterium tuberculosis Erdman (autoluminescent); test: GRinf, maximum normalised growth rate inhibition (unitless (-1 to 1)); higher = less effect (negative = killing)
Method: (§1)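 DiaMOND equipotent two-drug combination dose responses against autoluminescent M. tuberculosis Erdman in 8 in vitro models. Read-out is OD600, or luminescence for the intracellular and dormancy models, normalised to untreated wells. Hill-fit Einf, AUC25 and GRinf are potency metrics; FIC50 and FIC90 are Loewe-additivity fractional inhibitory concentrations, given as log2 (negative = synergy). Replicates are averaged.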

[2] = system: Mycobacterium tuberculosis Erdman (autoluminescent); test: FIC90 (Loewe) at 90% inhibition (log2); higher = more antagonistic
Method: as §1

[3] = system: Mycobacterium tuberculosis Erdman (autoluminescent); test: AUC25, normalised area under dose response up to IC25 (fraction (0-1)); higher = more potent at low dose
Method: as §1

[4] = system: Mycobacterium tuberculosis Erdman (autoluminescent); test: FIC50 (Loewe) at 50% inhibition (log2); higher = more antagonistic
Method: as §1

[5] = system: Mycobacterium tuberculosis Erdman (autoluminescent); test: Einf, fitted maximum growth inhibition of combination (fraction); higher = stronger maximal inhibition
Method: as §1

CC[C@@H](CO)NCCN[C@@H](CC)CO [ethambutol] + NNC(=O)c1ccncc1 [isoniazid]
Settings | AUC25, [3] | Einf, [5] | FIC50, [4] | FIC90, [2] | GRinf, [1]
in vitro model: acidic pH 5.7, time point: constant (~7 days, model-specific) | 0.134 | 0.693 | 1.2 | – | -0.17
in vitro model: acidic pH 5.7, time point: terminal (~4-5 doublings, model-specific) | 0.0706 | 0.919 | 0.67 | 0.229 | 0.00119
in vitro model: intracellular J774, time point: constant = terminal | – | 1 | – | -0.439 | -0.332

Settings | AUC25, [3] | Einf, [5] | FIC50, [4] | FIC90, [2] | GRinf, [1]
in vitro model: butyrate, time point: constant (~7 days, model-specific) | 0.075 | 0.933 | 0.509 | – | -0.0966
in vitro model: butyrate, time point: terminal (~4-5 doublings, model-specific) | 0.0681 | 0.973 | 0.525 | 0.423 | -0.109
in vitro model: cholesterol 0.05 mM, time point: constant (~7 days, model-specific) | 0.0891 | 0.73 | 0.389 | – | -0.157
in vitro model: cholesterol 0.05 mM, time point: terminal (~4-5 doublings, model-specific) | 0.0491 | 0.862 | 0.82 | – | -0.106
in vitro model: cholesterol-high 0.2 mM, time point: constant (~7 days, model-specific) | 0.0277 | 0.905 | 0.561 | – | -0.31
in vitro model: cholesterol-high 0.2 mM, time point: terminal (~4-5 doublings, model-specific) | 0.0319 | 1 | 0.775 | 0.501 | -0.731
in vitro model: dormancy (butyrate + nitrate, low O2), time point: constant (~7 days, model-specific) | 0.104 | 0.818 | -0.0762 | – | 0.454
in vitro model: dormancy (butyrate + nitrate, low O2), time point: terminal (~4-5 doublings, model-specific) | 0.0973 | 0.964 | -0.121 | -0.0702 | -0.0063
in vitro model: standard 7H9 glycerol, time point: constant = terminal | 0.0635 | 0.92 | 0.483 | 0.426 | 0.0262
in vitro model: valerate, time point: constant (~7 days, model-specific) | 0.111 | 0.897 | 0.108 | – | 0.0449
in vitro model: valerate, time point: terminal (~4-5 doublings, model-specific) | 0.0612 | 0.935 | 0.332 | 0.345 | 0.0607

CC[C@@H](CO)NCCN[C@@H](CC)CO [ethambutol] + O=[N+]([O-])c1cn2c(n1)OC[C@@H](OCc1ccc(OC(F)(F)F)cc1)C2 [pretomanid]
Settings | AUC25, [3] | Einf, [5] | FIC50, [4] | FIC90, [2] | GRinf, [1]
in vitro model: acidic pH 5.7, time point: constant (~7 days, model-specific) | 0.113 | 0.847 | 0.0798 | -1.11 | -0.488
in vitro model: acidic pH 5.7, time point: terminal (~4-5 doublings, model-specific) | 0.0826 | 0.978 | 0.568 | 0.214 | -0.437
in vitro model: intracellular J774, time point: constant = terminal | – | 0.977 | – | -1.45 | -0.403

Settings | AUC25, [3] | Einf, [5] | FIC50, [4] | FIC90, [2] | GRinf, [1]
in vitro model: butyrate, time point: constant (~7 days, model-specific) | 0.0746 | 0.924 | 0.254 | – | 0.00273
in vitro model: butyrate, time point: terminal (~4-5 doublings, model-specific) | 0.0585 | 0.967 | 0.0549 | -0.401 | -0.0359
in vitro model: cholesterol 0.05 mM, time point: constant (~7 days, model-specific) | 0.12 | 0.79 | 0.407 | – | -0.319
in vitro model: cholesterol 0.05 mM, time point: terminal (~4-5 doublings, model-specific) | 0.104 | 0.934 | 0.436 | 1.01 | -0.25
in vitro model: cholesterol-high 0.2 mM, time point: constant (~7 days, model-specific) | 0.0476 | 0.871 | 1.02 | – | -0.159
in vitro model: cholesterol-high 0.2 mM, time point: terminal (~4-5 doublings, model-specific) | 0.0356 | 0.99 | 0.975 | 1.06 | -0.498
in vitro model: dormancy (butyrate + nitrate, low O2), time point: constant (~7 days, model-specific) | 0.1 | 0.835 | 0.385 | – | 0.404
in vitro model: dormancy (butyrate + nitrate, low O2), time point: terminal (~4-5 doublings, model-specific) | 0.112 | 0.968 | 0.00245 | 0.272 | 0.0288
in vitro model: standard 7H9 glycerol, time point: constant = terminal | 0.076 | 0.958 | 0.211 | -0.156 | -0.109
in vitro model: valerate, time point: constant (~7 days, model-specific) | 0.111 | 0.836 | 0.23 | – | 0.0201
in vitro model: valerate, time point: terminal (~4-5 doublings, model-specific) | 0.0733 | 0.922 | 0.115 | 0.51 | 0.0884

NNC(=O)c1ccncc1 [isoniazid] + CC(=O)NC[C@H]1CN(c2ccc(N3CCOCC3)c(F)c2)C(=O)O1 [linezolid]
Settings | AUC25, [3] | Einf, [5] | FIC50, [4] | FIC90, [2] | GRinf, [1]
in vitro model: acidic pH 5.7, time point: constant (~7 days, model-specific) | 0.0979 | 0.795 | 0.0411 | – | -0.178
in vitro model: acidic pH 5.7, time point: terminal (~4-5 doublings, model-specific) | 0.0773 | 0.963 | 0.877 | 0.0348 | -0.173
in vitro model: intracellular J774, time point: constant = terminal | – | 0.915 | – | 0.155 | -0.0635

Settings | AUC25, [3] | Einf, [5] | FIC50, [4] | FIC90, [2] | GRinf, [1]
in vitro model: butyrate, time point: constant (~7 days, model-specific) | 0.0801 | 0.917 | 0.754 | 0.923 | 0.00442
in vitro model: butyrate, time point: terminal (~4-5 doublings, model-specific) | 0.0539 | 0.959 | 0.657 | 0.547 | 0.0109
in vitro model: cholesterol 0.05 mM, time point: constant (~7 days, model-specific) | 0.129 | 0.677 | 0.121 | – | -0.0433
in vitro model: cholesterol 0.05 mM, time point: terminal (~4-5 doublings, model-specific) | 0.14 | 0.945 | 4.49 | -0.681 | -0.23
in vitro model: cholesterol-high 0.2 mM, time point: constant (~7 days, model-specific) | 0.127 | 0.928 | -0.123 | 0.0406 | -0.371
in vitro model: cholesterol-high 0.2 mM, time point: terminal (~4-5 doublings, model-specific) | 0.119 | 1 | -0.0744 | 0.498 | -0.893
in vitro model: dormancy (butyrate + nitrate, low O2), time point: constant (~7 days, model-specific) | 0.0528 | 0.912 | 1.45 | 0.856 | 0.109
in vitro model: dormancy (butyrate + nitrate, low O2), time point: terminal (~4-5 doublings, model-specific) | 0.0354 | 0.989 | 1.06 | 0.558 | 0.00877
in vitro model: standard 7H9 glycerol, time point: constant = terminal | 0.0758 | 0.909 | 0.116 | 0.045 | 0.137
in vitro model: valerate, time point: constant (~7 days, model-specific) | 0.0661 | 0.818 | 0.548 | – | 0.0896
in vitro model: valerate, time point: terminal (~4-5 doublings, model-specific) | 0.0441 | 0.916 | 0.612 | 0.861 | 0.0931

NNC(=O)c1ccncc1 [isoniazid] + CO[C@H]1/C=C/O[C@@]2(C)Oc3c(C)c(O)c4c(O)c(c(/C=N/N5CCN(C6CCCC6)CC5)c(O)c4c3C2=O)NC(=O)/C(C)=C\C=C\[C@H](C)[C@H](O)[C@@H](C)[C@@H](O)[C@@H](C)[C@H](OC(C)=O)[C@@H]1C [rifapentine]
Settings | AUC25, [3] | Einf, [5] | FIC50, [4] | FIC90, [2] | GRinf, [1]
in vitro model: acidic pH 5.7, time point: constant (~7 days, model-specific) | 0.0483 | 0.894 | 0.277 | – | -0.237
in vitro model: acidic pH 5.7, time point: terminal (~4-5 doublings, model-specific) | 0.0378 | 0.987 | 0.368 | 0.117 | -0.277
in vitro model: intracellular J774, time point: constant = terminal | – | 0.935 | – | -0.279 | -0.145

Settings | AUC25, [3] | Einf, [5] | FIC50, [4] | FIC90, [2] | GRinf, [1]
in vitro model: butyrate, time point: constant (~7 days, model-specific) | 0.0724 | 0.903 | 0.471 | -0.186 | 0.0346
in vitro model: butyrate, time point: terminal (~4-5 doublings, model-specific) | 0.0522 | 0.951 | 0.425 | 0.159 | 0.0382
in vitro model: cholesterol 0.05 mM, time point: constant (~7 days, model-specific) | 0.0889 | 0.673 | 0.00942 | – | -0.0811
in vitro model: cholesterol 0.05 mM, time point: terminal (~4-5 doublings, model-specific) | 0.0939 | 0.917 | 0.122 | 1.12 | -0.127
in vitro model: cholesterol-high 0.2 mM, time point: constant (~7 days, model-specific) | 0.0721 | 0.937 | 0.338 | – | -0.348
in vitro model: cholesterol-high 0.2 mM, time point: terminal (~4-5 doublings, model-specific) | 0.0611 | 0.998 | 0.562 | 0.57 | -0.717
in vitro model: dormancy (butyrate + nitrate, low O2), time point: constant (~7 days, model-specific) | 0.0529 | 0.926 | 0.188 | -0.294 | 0.144
in vitro model: dormancy (butyrate + nitrate, low O2), time point: terminal (~4-5 doublings, model-specific) | 0.0384 | 0.985 | -0.00795 | -0.177 | -0.174
in vitro model: standard 7H9 glycerol, time point: constant = terminal | 0.0391 | 0.905 | 0.622 | 0.354 | 0.117
in vitro model: valerate, time point: constant (~7 days, model-specific) | 0.034 | 0.752 | 0.888 | – | 0.146
in vitro model: valerate, time point: terminal (~4-5 doublings, model-specific) | 0.0276 | 0.928 | 1 | 1.18 | -0.00496
